From patent US20130230459A1, “RADIOLABELLED mGluR2 PET LIGANDS” (Janssen Pharmaceuticals, Inc., priority 2010, published 2013)
Where “and” joins values, the source holds several entries; their conditions need not be identical. Equal values may be shown once. One block for each compound: values may come before it.

Assay: Biodistribution studies of 11C tracers
Format: in vivo, Wistar rats
Settings: for SUV Blood / SUV Cerebellum / SUV Cerebrum total / SUV Cortex / SUV Hippocampus / SUV Striatum: normalized for body weight
Experimental: Biodistribution studies were carried out in healthy male Wistar rats (body weight 200-450 g) at 2 min, 30 min and 60 min post injection (p.i.) (n=3/time point). Rats were injected with about 11 MBq (2 min, 30 min analysis) or 22 MBq (60 min analysis) of the tracer via tail vein under anesthesia (2.5% isoflurane in O2 at 1 L/min flow rate) and sacrificed by decapitation at above specified time points. Blood and major organs were collected in tared tubes and weighed. The radioactivity in blood, organs and other body parts was measured using an automated gamma counter. The distribution of radioactivity in different parts of the body at different time points p.i. of the tracer was calculated and expressed as percentage of injected dose (% ID), and as percentage of injected dose per gram tissue (% ID/g) for the selected organs. % ID is calculated as cpm in organ/total cpm recovered. For calculation of total radioactivity in blood, blood mass was assumed to be 7% of the body mass.

SMILES: [11CH3]Oc1ccc(F)cc1C1CCN(c2ccn3c(CC4CC4)nnc3c2Cl)CC1 [[^11C]B-4, 8-chloro-3-(cyclopropylmethyl)-7-[4-[5-fluoro-2-[^11C]methoxyphenyl]-1-piperidinyl]-1,2,4-triazolo[4,3-a]pyridine]
% ID Blood (2 min p.i.): 5.6 % ID and 5.6 ± 0.4 % ID | % ID Carcass (2 min p.i.): 42.0 ± 2.0 % ID | % ID Cerebellum (2 min p.i.): 0.10 % ID and 0.100 ± 0.000 % ID | % ID Cerebrum total (2 min p.i.): 0.45 % ID and 0.450 ± 0.029 % ID | % ID Cortex (2 min p.i.): 0.092 ± 0.019 % ID | % ID Heart (2 min p.i.): 4.1 ± 0.3 % ID | % ID Hippocampus (2 min p.i.): 0.010 ± 0.001 % ID | % ID Intestines (2 min p.i.): 7.3 ± 0.6 % ID | % ID Kidneys (2 min p.i.): 6.4 ± 0.6 % ID | % ID Liver (2 min p.i.): 29.9 ± 2.0 % ID | % ID Lungs (2 min p.i.): 2.9 ± 0.4 % ID | % ID Rest of cerebrum (2 min p.i.): 0.344 ± 0.047 % ID | % ID Spleen + Pancreas (2 min p.i.): 1.9 ± 0.2 % ID | % ID Stomach (2 min p.i.): 1.5 ± 0.3 % ID | % ID Striatum (2 min p.i.): 0.014 ± 0.001 % ID | % ID Urine (2 min p.i.): 0.0 ± 0.0 % ID | Total brain uptake (2 min p.i.): 0.58 % ID and 0.58 ± 0.0 % ID | SUV Blood (2 min p.i.): 0.80 ± 0.01 | SUV Cerebellum (2 min p.i.): 1.46 and 1.46 ± 0.02 | SUV Cerebrum total (2 min p.i.): 1.39 ± 0.01 | SUV Cortex (2 min p.i.): 1.65 ± 0.02 | SUV Hippocampus (2 min p.i.): 1.04 ± 0.01 | SUV Striatum (2 min p.i.): 1.46 and 1.46 ± 0.02 | % ID Blood (30 min p.i.): 2.8 ± 0.3 % ID | % ID Carcass (30 min p.i.): 64.3 ± 5.8 % ID | % ID Cerebellum (30 min p.i.): 0.191 ± 0.030 % ID | % ID Cerebrum total (30 min p.i.): 0.694 ± 0.117 % ID | % ID Cortex (30 min p.i.): 0.165 ± 0.081 % ID | % ID Heart (30 min p.i.): 2.5 ± 0.4 % ID | % ID Hippocampus (30 min p.i.): 0.026 ± 0.007 % ID | % ID Intestines (30 min p.i.): 8.3 ± 2.0 % ID | % ID Kidneys (30 min p.i.): 4.0 ± 0.7 % ID | % ID Liver (30 min p.i.): 14.2 ± 2.4 % ID | % ID Lungs (30 min p.i.): 0.7 ± 0.1 % ID | % ID Rest of cerebrum (30 min p.i.): 0.469 ± 0.047 % ID | % ID Spleen + Pancreas (30 min p.i.): 1.4 ± 0.2 % ID | % ID Stomach (30 min p.i.): 2.1 ± 0.3 % ID | % ID Striatum (30 min p.i.): 0.034 ± 0.005 % ID | % ID Urine (30 min p.i.): 0.3 ± 0.2 % ID | Total brain uptake (30 min p.i.): 0.93 ± 0.2 % ID | SUV Blood (30 min p.i.): 0.40 ± 0.01 | SUV Cerebellum (30 min p.i.): 2.33 ± 0.04 | SUV Cerebrum total (30 min p.i.): 1.66 ± 0.03 | SUV Cortex (30 min p.i.): 1.87 ± 0.02 | SUV Hippocampus (30 min p.i.): 1.57 ± 0.03 | SUV Striatum (30 min p.i.): 2.31 ± 0.04 | % ID Blood (60 min p.i.): 3.3 % ID and 3.3 ± 0.2 % ID | % ID Carcass (60 min p.i.): 62.8 ± 2.5 % ID | % ID Cerebellum (60 min p.i.): 0.144 ± 0.021 % ID | % ID Cerebrum total (60 min p.i.): 0.596 ± 0.128 % ID | % ID Cortex (60 min p.i.): 0.097 ± 0.039 % ID | % ID Heart (60 min p.i.): 1.3 ± 0.3 % ID | % ID Hippocampus (60 min p.i.): 0.021 ± 0.005 % ID | % ID Intestines (60 min p.i.): 11.1 ± 0.9 % ID | % ID Kidneys (60 min p.i.): 2.9 ± 0.4 % ID | % ID Liver (60 min p.i.): 15.4 ± 0.9 % ID | % ID Lungs (60 min p.i.): 0.5 ± 0.1 % ID | % ID Rest of cerebrum (60 min p.i.): 0.450 ± 0.086 % ID | % ID Spleen + Pancreas (60 min p.i.): 1.3 ± 0.2 % ID | % ID Stomach (60 min p.i.): 1.6 ± 0.3 % ID | % ID Striatum (60 min p.i.): 0.029 ± 0.009 % ID | % ID Urine (60 min p.i.): 0.6 ± 0.1 % ID | % ID present in liver and intestines (60 min p.i.): 26.5 % ID | % ID present in the urinary system (60 min p.i.): 3.5 % ID | Total brain uptake (60 min p.i.): 0.76 ± 0.1 % ID | SUV Blood (60 min p.i.): 0.50 ± 0.00 | SUV Cerebellum (60 min p.i.): 1.68 ± 0.04 | SUV Cerebrum total (60 min p.i.): 1.40 ± 0.03 | SUV Cortex (60 min p.i.): 1.34 ± 0.02 | SUV Hippocampus (60 min p.i.): 1.13 ± 0.02 | SUV Striatum (60 min p.i.): 1.78 ± 0.04 | % ID present in the carcass (at all time points examined): ~56 % ID

% ID Blood (2 min p.i.): 5.4 % ID and 5.4 ± 0.3 % ID | % ID Carcass (2 min p.i.): 40 % ID and 39.8 ± 2.8 % ID | % ID Cerebellum (2 min p.i.): 0.18 % ID and 0.179 ± 0.043 % ID | % ID Cerebrum total (2 min p.i.): 0.53 % ID and 0.529 ± 0.098 % ID | % ID Cortex (2 min p.i.): 0.081 ± 0.011 % ID | % ID Heart (2 min p.i.): 4.1 ± 0.4 % ID | % ID Hippocampus (2 min p.i.): 0.020 ± 0.004 % ID | % ID Intestines (2 min p.i.): 8.2 ± 1.1 % ID | % ID Kidneys (2 min p.i.): 6.5 ± 0.7 % ID | % ID Liver (2 min p.i.): 33.4 ± 2.0 % ID | % ID Lungs (2 min p.i.): 1.8 ± 0.7 % ID | % ID Rest of cerebrum (2 min p.i.): 0.428 ± 0.084 % ID | % ID Spleen + Pancreas (2 min p.i.): 1.3 ± 0.2 % ID | % ID Stomach (2 min p.i.): 1.5 ± 0.2 % ID | % ID Striatum (2 min p.i.): 0.028 ± 0.008 % ID | % ID Urine (2 min p.i.): 0.1 ± 0.0 % ID | Total brain uptake (2 min p.i.): 0.75 % ID and 0.75 ± 0.1 % ID | % ID Blood (30 min p.i.): 3.5 ± 0.2 % ID | % ID Carcass (30 min p.i.): 64.9 ± 4.2 % ID | % ID Cerebellum (30 min p.i.): 0.198 ± 0.026 % ID | % ID Cerebrum total (30 min p.i.): 0.718 ± 0.142 % ID | % ID Cortex (30 min p.i.): 0.120 ± 0.018 % ID | % ID Heart (30 min p.i.): 1.4 ± 0.2 % ID | % ID Hippocampus (30 min p.i.): 0.030 ± 0.003 % ID | % ID Intestines (30 min p.i.): 10.2 ± 1.5 % ID | % ID Kidneys (30 min p.i.): 2.8 ± 0.3 % ID | % ID Liver (30 min p.i.): 14.6 ± 1.2 % ID | % ID Lungs (30 min p.i.): 0.6 ± 0.1 % ID | % ID Rest of cerebrum (30 min p.i.): 0.523 ± 0.117 % ID | % ID Spleen + Pancreas (30 min p.i.): 1.2 ± 0.3 % ID | % ID Stomach (30 min p.i.): 1.4 ± 0.2 % ID | % ID Striatum (30 min p.i.): 0.045 ± 0.014 % ID | % ID Urine (30 min p.i.): 0.4 ± 0.1 % ID | Total brain uptake (30 min p.i.): 0.93 ± 0.2 % ID | % ID Blood (60 min p.i.): 3.7 % ID and 3.7 ± 0.4 % ID | % ID Carcass (60 min p.i.): 61.5 ± 5.7 % ID | % ID Cerebellum (60 min p.i.): 0.163 ± 0.011 % ID | % ID Cerebrum total (60 min p.i.): 0.543 ± 0.014 % ID | % ID Cortex (60 min p.i.): 0.059 ± 0.007 % ID | % ID Heart (60 min p.i.): 0.9 ± 0.1 % ID | % ID Hippocampus (60 min p.i.): 0.022 ± 0.003 % ID | % ID Intestines (60 min p.i.): 13.4 ± 3.3 % ID | % ID Kidneys (60 min p.i.): 2.0 ± 0.3 % ID | % ID Liver (60 min p.i.): 15.3 ± 2.1 % ID | % ID Lungs (60 min p.i.): 0.7 ± 0.1 % ID | % ID Rest of cerebrum (60 min p.i.): 0.435 ± 0.004 % ID | % ID Spleen + Pancreas (60 min p.i.): 0.9 ± 0.0 % ID | % ID Stomach (60 min p.i.): 2.4 ± 0.7 % ID | % ID Striatum (60 min p.i.): 0.026 ± 0.007 % ID | % ID Urine (60 min p.i.): 0.5 ± 0.2 % ID | % ID present in liver and intestines (60 min p.i.): 28.7 % ID | % ID present in the urinary system (60 min p.i.): 2.5 % ID | Total brain uptake (60 min p.i.): 0.72 ± 0.0 % ID
SMILES: [11CH3]Oc1cc(F)cc(F)c1C1CCN(c2ccn3c(CC4CC4)nnc3c2Cl)CC1 [[^11C]B-7, 8-chloro-3-(cyclopropylmethyl)-7-[4-[2,4-difluoro-6-[^11C]methoxyphenyl]-1-piperidinyl]-1,2,4-triazolo[4,3-a]pyridine]
SUV Blood (2 min p.i.): 0.80 ± 0.00 | SUV Cerebellum (2 min p.i.): 1.53 ± 0.03 | SUV Cerebrum total (2 min p.i.): 1.08 ± 0.02 | SUV Cortex (2 min p.i.): 1.14 ± 0.03 | SUV Hippocampus (2 min p.i.): 0.85 ± 0.02 | SUV Striatum (2 min p.i.): 1.13 ± 0.03 | SUV Blood (30 min p.i.): 0.50 ± 0.00 | SUV Cerebellum (30 min p.i.): 2.0 and 2.00 ± 0.03 | SUV Cerebrum total (30 min p.i.): 1.51 ± 0.03 | SUV Cortex (30 min p.i.): 1.72 ± 0.05 | SUV Hippocampus (30 min p.i.): 1.20 ± 0.01 | SUV Striatum (30 min p.i.): 1.70 ± 0.03 | SUV Blood (60 min p.i.): 0.50 ± 0.01 | SUV Cerebellum (60 min p.i.): 1.50 ± 0.01 | SUV Cerebrum total (60 min p.i.): 1.19 ± 0.01 | SUV Cortex (60 min p.i.): 1.10 ± 0.01 | SUV Hippocampus (60 min p.i.): 0.98 ± 0.01 | SUV Striatum (60 min p.i.): 1.43 ± 0.01
